This note sets out measurements from ChEMBL document CHEMBL1201862, “PubChem BioAssay data set” (2004).

The structures appear in SMILES notation.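 Briefly, cells in 96-well plates were exposed to five compound concentrations for 48 h, and endpoints were estimated by linear interpolation. GI50 marks 50% less growth.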 Calls of active or inactive are those of the source. Cut-off read from the data, not from the text of the source: active = GI50 up to about 1.1 µM and inactive = higher.

What all share (assay): NCI anticancer screen, dose series, 48 h
Experiment [1] has as its system OVCAR-8.
Experiment [2] concerns MDA-MB-231.
The subject of experiment [3] is Malme-3M.
Experiment [4] deals with UACC-257.
Experiment [5] concerns SNB-75.
The test system of experiment [6] is HOP-62.
Experiment [7] has as its system SN12C.
Experiment [8] has as its system EKVX.
The test system of experiment [9] is M14.
Experiment [10] concerns T47D.
Experiment [11] deals with ACHN.
Experiment [12] concerns MOLT-4.
The test system of experiment [13] is UACC-62.
For experiment [14], the system named is SW-620.
The subject of experiment [15] is OVCAR-3.
Experiment [16] relates to HCT-116.
Experiment [17] relates to NCI-H460.
Experiment [18] has as its system 786-0.
Experiment [19] deals with LOX IMVI.

Consider `Clc1nc(Cl)c(CBr)c(Cl)n1`, for which the GI50 in experiment [1] was 3.27 µM (inactive); in experiment [2], 1.9 µM (inactive); in [3], 4.16 µM (inactive); in experiment [4], 15 µM (inactive); in [5], 8.83 µM (inactive); in experiment [6] it was 5.04 µM (inactive). In addition, the GI50 is 2.63 µM (inactive) in experiment [7]; 22.1 µM (inactive) in [8]; 2.91 µM (inactive) in experiment [9]; 13.5 µM (inactive) in experiment [10]; 4.84 µM (inactive) in experiment [11]; 1.45 µM (inactive) in experiment [12]. Also, the GI50 in experiment [13] is 5.08 µM (inactive); in experiment [14], 1.89 µM (inactive); in experiment [15] it was 5.45 µM (inactive); in [16] it was 2.48 µM (inactive); in [17], 4.3 µM (inactive); in experiment [18], 2.24 µM (inactive). Further, the GI50 in experiment [19] is 1.83 µM (inactive).

As for `CCNCCCNc1c2ccccc2nc2ccccc12`, the GI50 is 0.349 µM (active) in experiment [1]; 0.612 µM (active) in experiment [2]; 0.406 µM (active) in experiment [3]; 0.424 µM (active) in [4]; 0.234 µM (active) in experiment [5]; 0.402 µM (active) in experiment [6]. In addition, the GI50 in [7] was 0.429 µM (active); in experiment [8] it was 0.569 µM (active); in experiment [9], 0.318 µM (active); in experiment [10] it was 0.502 µM (active); in experiment [11], 0.136 µM (active); in experiment [12], 0.313 µM (active). The GI50 in experiment [13] is 0.387 µM (active); in experiment [14], 0.278 µM (active); in experiment [15], 0.326 µM (active); in experiment [16], 0.365 µM (active); in [17], 0.196 µM (active); in [18], 0.552 µM (active). Also, in experiment [19], the GI50 is 0.251 µM (active).

Turning to `CC(=O)CCC1(C(=O)OCC(C)C)CCCC1=O` (configuration not stated), the GI50 in [1], in experiment [2], in [3], in [4], in experiment [5] and in experiment [6] was > 100 µM (inactive) each time. Further, the GI50 in experiment [7], in experiment [8], in experiment [9], in [10], in [11] and in [12] was > 100 µM (inactive) in each case. The GI50 in [13] is > 100 µM (inactive); in experiment [14], > 100 µM (inactive); in experiment [15] it was 63.4 µM (inactive); in experiment [16], > 100 µM (inactive); in experiment [17], > 100 µM (inactive); in experiment [18], > 100 µM (inactive). In addition, the GI50 in experiment [19] is > 100 µM (inactive).

For `BrCc1ccc(CBr)c2c1-c1c(CBr)ccc3ccc(CBr)c-2c13`, the GI50 in experiment [1], in experiment [2], in [3], in [4], in experiment [5] and in experiment [6] was > 100 µM (inactive) in each case. Besides, the GI50 was > 100 µM (inactive) in [7]; > 100 µM (inactive) in [8]; > 100 µM (inactive) in experiment [9]; > 100 µM (inactive) in experiment [10]; > 100 µM (inactive) in experiment [11]; 33.8 µM (inactive) in [12]. In addition, the GI50 is > 100 µM (inactive) in experiment [13]; > 100 µM (inactive) in experiment [14]; > 100 µM (inactive) in [15]; 98.6 µM (inactive) in experiment [16]; > 100 µM (inactive) in experiment [17]; > 100 µM (inactive) in experiment [18]. Besides, in experiment [19], the GI50 was > 100 µM (inactive).

As to `O=C1NC(c2c(Cl)cccc2Cl)Nc2ccccc21` (configuration not stated), the GI50 in experiment [1] was 47.1 µM (inactive); in [2], 30.5 µM (inactive); in experiment [3], 24.8 µM (inactive); in [4] it was > 100 µM (inactive); in experiment [5], 2.89 µM (inactive); in experiment [6], 81.7 µM (inactive). Moreover, the GI50 was 65.6 µM (inactive) in [7]; 56 µM (inactive) in experiment [8]; 34.8 µM (inactive) in experiment [9]; > 100 µM (inactive) in experiment [10]; > 100 µM (inactive) in experiment [11]; 47.6 µM (inactive) in experiment [12]. Besides, the GI50 is 37 µM (inactive) in experiment [13]; 30.5 µM (inactive) in [14]; 50.1 µM (inactive) in experiment [15]; 25.4 µM (inactive) in experiment [16]; 26.5 µM (inactive) in experiment [17]; 54.3 µM (inactive) in experiment [18]. Further, the GI50 in experiment [19] is 47.2 µM (inactive).

With `O=C1C=Cc2cscc21`, the GI50 was 32.6 µM (inactive) in experiment [1]; 31.8 µM (inactive) in [2]; 27 µM (inactive) in experiment [3]; > 100 µM (inactive) in experiment [4]; 42.5 µM (inactive) in [5]; > 100 µM (inactive) in experiment [6]. Moreover, the GI50 is 28.1 µM (inactive) in experiment [7]; 46.5 µM (inactive) in experiment [8]; 26.4 µM (inactive) in experiment [9]; 27.5 µM (inactive) in experiment [10]; 34.5 µM (inactive) in [11]; 14.3 µM (inactive) in experiment [12]. In addition, the GI50 in experiment [13] is > 100 µM (inactive); in [14] it was 33.3 µM (inactive); in experiment [15], 21.5 µM (inactive); in [16] it was 15.3 µM (inactive); in experiment [17], > 100 µM (inactive); in [18], 16.4 µM (inactive). For the same compound, the GI50 in experiment [19] was 35.8 µM (inactive).

On to `NNC(=O)c1nnn(N)c1S`, for which the GI50 was > 100 µM (inactive) in [1]; 45.4 µM (inactive) in [2]; > 100 µM (inactive) in experiment [3]; > 100 µM (inactive) in [4]; > 100 µM (inactive) in experiment [5]; > 100 µM (inactive) in experiment [6]. In addition, the GI50 in experiment [7], in experiment [8], in experiment [9], in experiment [10], in experiment [11] and in experiment [12] was > 100 µM (inactive) in each case. The GI50 is > 100 µM (inactive) in experiment [13]; > 100 µM (inactive) in experiment [14]; > 100 µM (inactive) in experiment [15]; > 100 µM (inactive) in experiment [16]; > 100 µM (inactive) in experiment [17]; 93.8 µM (inactive) in experiment [18]. Also, the GI50 in experiment [19] is 79.6 µM (inactive).

Regarding `O=C1c2cc3c(cc2CC12Cc1cc4c(cc1C2=O)CCC4)CCC3`, the GI50 in experiment [1], in experiment [2], in [3], in experiment [4], in [5] and in experiment [6] was > 100 µM (inactive) in each case. Also, the GI50 in [7] is > 100 µM (inactive); in experiment [8], > 100 µM (inactive); in experiment [9] it was 14.4 µM (inactive); in experiment [10] it was > 100 µM (inactive); in experiment [11], > 100 µM (inactive); in [12], > 100 µM (inactive). The GI50 in [13], in [14], in experiment [15], in experiment [16], in [17] and in [18] was > 100 µM (inactive) in each case. Besides, the GI50 in experiment [19] was > 100 µM (inactive).
